This note sets out measurements from patent publication US20180099937A1, “NOVEL ARYL-CYANOGUANIDINE COMPOUNDS” (Bayer Pharma Aktiengesellschaft, priority 2015, published 2018).

For the experiment, the target named is SMYD2 (Homo sapiens, UniProt Q9NRG4). Nature of the experiment: Scintillation Proximity Assay (SPA) for detection of SMYD2 enzymatic inhibition. Type of experiment: biochemical. Also on record: The SMYD2 full length enzyme was produced in-house by expression (with an N-terminal 6× His tag) in E. coli; 6xHis (N); made in house; host or cells: E. coli. Conditions: SMYD2 full length enzyme, p53 Peptide substrate 1.0 μM, 3H-SAM 60 nM; read-out: IC50 [mol/l] (SPA Assay). From the text:
1.1 Scintillation Proximity Assay (SPA) for Detection of SMYD2 Enzymatic Inhibition
SMYD2 inhibitory activities of the compounds described in the present invention were quantified using a scintillation proximity assay (SPA) which measures methylation by the enzyme of the synthetic, biotinylated peptide Btn-Ahx-[…]—Amid×TFA (Biosyntan) derived from p53 and referred to from here on as “p53 Peptide”. The SMYD2 full length enzyme was produced in-house by expression (with an N-terminal 6× His tag) in E. coli and purification by affinity chromatography on a Ni-NTA Sepharose column followed by a size exclusion chromatography step on a Superdex 200 16/60 column (GE Healthcare).
In a typical assay 11 different concentrations of each compound (0.1 nM, 0.33 nM, 1.1 nM, 3.8 nM, 13 nM, 44 nM, 0.15 μM, 0.51 μM, 1.7 μM, 5.9 μM and 20 μM) were tested in duplicate within the same microtiter plate. To this end, 100-fold concentrated compound solutions (in DMSO) were previously prepared by serial dilution (1:3.4) of 2 mM stocks in a clear low volume 384-well source microliter plate (Greiner Bio-One), from which 50 nl of compound solutions were transferred into a white low volume test microtiter plate from the same supplier. Subsequently, 2.5 μl SMYD2 in aqueous assay buffer [50 mM Tris/HCl pH 9.0 (AppliChem), 1 mM dithiothreitol (DTT, Sigma), 0.01% (w/v) bovine serum albumine (BSA, Sigma), 0.0022% (v/v) Pluronic (Sigma)] were added to the compounds in the test plate to a final enzyme concentration of —typically—3 nM (this parameter was adjusted depending on the activity of the enzyme lot in order to be within the linear dynamic range of the assay). The samples were then incubated for 15 min at 22° C. to allow pre-equilibration of the putative enzyme-inhibitor complexes before the start of the methylation reaction, which was initiated by the addition of 2.5 μl 2-fold concentrated solution (in assay buffer) of titriated S-Adenosyl-L-Methionine (3H-SAM, Perkin Elmer, final concentration: 60 nM) and p53 Peptide substrate (final concentration: 1.0 μM). The resulting mixture (5 μl final volume) was shortly centrifuged (2 min., 1500 rpm) and incubated at 22° C. during 30 min. Thereupon the reaction was stopped by adding 3 μl of Streptavidin PS SPA imaging beads (Perkin Elmer, final concentration of 3.12 μg/μl) and “cold” SAM (AK Scientific, 25 μM final concentration) for non-specific binding reduction. Plates containing the stopped reaction were sealed with transparent adhesive foil (Perkin Elmer), centrifuged (2 min., 1500 rpm), and further incubated for —at least—1 h at RT (or overnight at 4° C.) in order to allow the SPA signals to develop. Subsequently, the amount of product was evaluated by measuring the energy transfer from the β-particles emitted by the 3H-labeled substrate to the Europium scintillator co-polymerized in the polystyrene matrix of the PS imaging beads, using the standard settings for this purpose of a Viewlux (Perkin-Elmer) CCD plate imaging device (emission filter 613/55 (IFP). The resulting scintillation counts were taken as indicator for the amount of methylated peptide per well. The data were normalised using two sets of control wells (typically 16 each) for high−(=enzyme reaction with DMSO instead of test compound=0% =Minimum inhibition) and low−(=all assay components without enzyme=100% =Maximum inhibition) SMYD2 activity. IC50 values were calculated by fitting the normalized inhibition data to a 4-parameter logistic equation using the “Screener” analysis software from Genedata.
A general note: SPA uses beads or plates that emit light when radiolabelled molecules are held near them.

Chain of SMYD2 (Q9NRG4 whole entry): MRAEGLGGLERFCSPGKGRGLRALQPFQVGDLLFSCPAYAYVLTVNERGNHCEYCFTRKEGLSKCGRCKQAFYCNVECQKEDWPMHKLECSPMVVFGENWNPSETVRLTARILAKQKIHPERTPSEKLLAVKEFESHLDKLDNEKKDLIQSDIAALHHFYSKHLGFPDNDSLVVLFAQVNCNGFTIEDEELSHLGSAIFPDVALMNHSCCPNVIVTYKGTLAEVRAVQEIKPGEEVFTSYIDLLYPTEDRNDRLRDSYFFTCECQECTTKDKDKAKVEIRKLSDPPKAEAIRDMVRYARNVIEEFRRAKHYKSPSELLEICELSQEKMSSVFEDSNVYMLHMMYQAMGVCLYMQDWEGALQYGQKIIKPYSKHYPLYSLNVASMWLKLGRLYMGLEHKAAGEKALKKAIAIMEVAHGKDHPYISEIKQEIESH

With `CCN(C(=O)[C@H]1CCCN1)C1CN(/C(=N\C#N)Nc2ccc(F)c(OC)c2)N=C1c1ccc(Cl)c(Cl)c1` (mixture of isomers) [Example 33, N-{1-[N′-Cyano-N-(4-fluoro-3-methoxyphenyl)carbamimidoyl]-3-(3,4-dichlorophenyl)-4,5-dihydro-1H-pyrazol-4-yl}-N-ethyl-D-prolinamide], the IC50 worked out at 103 nM.
Take `CCN(C(=O)[C@H]1CCCN1)C1CN(/C(=N\C#N)Nc2cc(OC)ccc2C)N=C1c1ccc(Cl)c(Cl)c1` (mixture of isomers) [Example 34, N-{1-[N′-Cyano-N-(5-methoxy-2-methylphenyl)carbamimidoyl]-3-(3,4-dichlorophenyl)-4,5-dihydro-1H-pyrazol-4-yl}-N-ethyl-D-prolinamide]: the IC50 was found to be 615 nM.
The figure for `CCN(C(=O)[C@H]1CCCN1)C1CN(/C(=N\C#N)Nc2cccc(OCC(F)(F)F)c2)N=C1c1ccc(Cl)c(Cl)c1` (mixture of isomers) [Example 35, N-[1-{N′-Cyano-N-[3-(2,2,2-trifluorelethoxy)phenyl]carbamimidayl}-3-(3,4-dichlorophenyl)-4,5-dihydro-1H-pyrazol-4-yl]-N-ethyl-D-prolinamide] is 505 nM.
With `CCN(C(=O)[C@H]1CCCN1)C1CN(/C(=N\C#N)Nc2cccc(OC(F)F)c2)N=C1c1ccc(Cl)c(C)c1` (mixture of isomers) [Example 37, N-[3-(4-Chloro-3-methylphenyl)-1-{N′-cyano-N-[3-(difluoromethoxy)phenyl]carbamimidoyl}-4,5-dihydro-1H-pyrazol-4-yl]-N-ethyl-D-prolinamide], the IC50 is 18.7 nM.
On to `CCN(C(=O)[C@@H]1CCCC[C@@H]1N)C1CN(/C(=N\C#N)Nc2cccc(OC(F)F)c2)N=C1c1ccc(Cl)c(Cl)c1` (mixture of isomers) [Example 43, (1R,2S)-2-amino-N-[1-{N′-cyano-N-[3-(difluoromethoxy)phenyl]carbamimidoyl}-3-(3,4-dichlorophenyl)-4,5-dihydro-1H-pyrazol-4-yl]-N-ethylcyclohexanecarboxamide], for which the IC50 stood at 432 nM.
Regarding `CCN(C(=O)[C@@H]1CCC[C@@H]1N)C1CN(/C(=N\C#N)Nc2cc(OC)cc(C(F)(F)F)c2)N=C1c1ccc(Cl)c(Cl)c1` (mixture of isomers) [Example 45, (1R,2S)-2-Amino-N-[1-{N′-cyano-N-[3-methoxy-5-(trifluoromethyl)phenyl]carbamimidoyl}-3-(3,4-dichlorophenyl)-4,5-dihydro-1H-pyrazol-4-yl]-N-ethylcyclopentanecarboxamide], the IC50 was found to be 239 nM.
The figure for `N#C/N=C(/Nc1cccc(OC(F)F)c1)N1CC(NC(=O)C(N)(C2CC2)C2CC2)C(c2ccc(Cl)c(Cl)c2)=N1` (racemic) [Example 8, rac-2-Amino-N-[1-{N′-cyano-N-[3-(difluoromethoxy)phenyl]carbamimidoyl}-3-(3,4-dichlorophenyl)-4,5-dihydro-1H-pyrazol-4-yl]-2,2-dicyclopropylacetamide] is 513 nM; for `N#C/N=C(/Nc1cccc(OC(F)F)c1)N1CC(NC(=O)C2(N)CCC2)C(c2ccc(Cl)c(Cl)c2)=N1` (racemic) [Example 9, rac-1-Amino-N-[1-{N′-cyano-N-[3-(difluoromethoxy)phenyl]carbamimidoyl}-3-(3,4-dichlorophenyl)-4,5-dihydro-1H-pyrazol-4-yl]cyclobutanecarboxamide] it is 603 nM; for `N#C/N=C(/Nc1cccc(OC(F)F)c1)N1CC(NC(=O)C2(N)CCCC2)C(c2ccc(Cl)c(Cl)c2)=N1` (racemic) [Example 10, rac-1-Amino-N-[1-{N′-cyano-N-[3-(difluoromethoxy)phenyl]carbamimidoyl}-3-(3,4-dichlorophenyl)-4,5-dihydro-1H-pyrazol-4-yl]cyclopentanecarboxamide] it is 748 nM.
For `N#C/N=C(/Nc1cccc(OC(F)F)c1)N1CC(NC(=O)C2(N)CCCCC2)C(c2ccc(Cl)c(Cl)c2)=N1` (racemic) [Example 11, rac-1-Amino-N-[1-{N′-cyano-N-[3-(difluoromethoxy)phenyl]carbamimidoyl}-3-(3,4-dichlorophenyl)-4,5-dihydro-1H-pyrazol-4-yl]cyclohexanecarboxamide] the value was 1330 nM; for `CCN(C(=O)[C@H]1C[C@@H](F)CN1)C1CN(/C(=N\C#N)Nc2cc(F)cc(OC(F)(F)F)c2)N=C1c1ccc(Cl)c(Cl)c1` (mixture of isomers) [Example 25, (4R)-N-[1-{N′-Cyano-N-[3-fluoro-5-(trifluoromethoxy)phenyl]carbamimidayl}-3-(3,4-dichlorophenyl)-4,5-dihydro-1H-pyrazol-4-yl]-N-ethyl-4-fluoro-D-prolinamide], 519 nM.
For `CCN(C(=O)[C@@H]1CCC[C@@H]1N)C1CN(/C(=N\C#N)Nc2cccc(OC(F)F)c2)N=C1c1ccc(Cl)c(Cl)c1` (relative stereo) [Example 42, Rel-(1R,2S)-2-amino-N-[1-{N′-cyano-N-[3-(difluoromethoxy)phenyl]carbamimidoyl}-3-(3,4-dichlorophenyl)-4,5-dihydro-1H-pyrazol-4-yl]-N-ethylcyclopentanecarboxamide] the value was 194 nM; for `CCN(C(=O)[C@H]1CCCN1)C1CN(/C(=N\C#N)Nc2cccc(OC(F)F)c2)N=C1c1ccc(Cl)c(Cl)c1` (single isomer, unassigned) [Example 1.2, N-[1-{N′-Cyano-N-[3-(difluoromethoxy)phenyl]carbamimidoyl}-3-(3,4-dichlorphenyl)-4,5-dihydro-1H-pyrazol-4-yl]-N-ethyl-D-prolinamide], 362 nM.
With `CCN(C(=O)[C@H]1C[C@@H](O)CN1)C1CN(/C(=N\C#N)Nc2cccc(OC(F)F)c2)N=C1c1ccc(Cl)c(Cl)c1` (single isomer, unassigned) [Example 3.2], the IC50 came to 2240 nM.
The figure for `CCN(C(=O)[C@H]1C[C@@H](F)CN1)C1CN(/C(=N\C#N)Nc2cccc(OC(F)F)c2)N=C1c1ccc(Cl)c(Cl)c1` (single isomer, unassigned) [Example 4.1] is 39.9 nM; for `CCN(C(=O)[C@H]1C[C@@H](F)CN1)C1CN(/C(=N\C#N)Nc2cccc(OC(F)F)c2)N=C1c1ccc(Cl)c(Cl)c1` (single isomer, unassigned) [Example 4.2] it is 663 nM; for `CCN(C(=O)c1cccc(=O)[nH]1)C1CN(/C(=N\C#N)Nc2cccc(OC(F)F)c2)N=C1c1ccc(Cl)c(Cl)c1` (single isomer, unassigned) [Example 5.1, N-[1-{N′-Cyrano-N-[3-(difluoromethoxy)phenyl]carbamimidoyl}-3-(3,4-dichlorophenyl)-4,5-dihydro-1H-pyrazol-1-yl]-N-ethyl-6-oxo-1,6-dihydropyridine-2-carboxamide] it is 576 nM.
The figure for `CCN(C(=O)c1cccc(=O)[nH]1)C1CN(/C(=N\C#N)Nc2cccc(OC(F)F)c2)N=C1c1ccc(Cl)c(Cl)c1` (single isomer, unassigned) [Example 5.2, N-[1-{N′-Cyano-N-[3-(difluoromethoxy)phenyl]carbamimidoyl}-3-(3,4-dichlorophenyl)-4,5-dihydro-1H-pyrazol-4-yl]-N-ethyl-6-oxo-1,6-dihydropyridine-2-carboxamide] is above 20000 nM.
